# Assay results taken from PubChem BioAssay AID1963426 (Molecular Pharmacology Branch, DTP, NCI, 2024).
# Test system: 186277-243-T-J2-PDC complex spheroid growth, % test/control
# Assay: Anticancer human tumor 186277-243-T-J2-PDC patient-derived colon adenocarcinoma cell line growth inhibition [Asc]
# Settings: for IC50: curve of first compound; for viability, T/C: stronger effect = lower value
# Method in brief: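 Spheroid model: tumor line + HUVEC + hMSC. Single agents and combinations; top conc. at/near clinical Cmax (10 microM if undetermined), half-log dilutions. DMSO stocks at 800-fold test concentration.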
# [1] = second compound 0.01 µM, first compound 0.00949 µM
# [2] = second compound 0.01 µM, first compound 0.03 µM
# [3] = second compound 0.01 µM, first compound 0.0949 µM
# [4] = second compound 0.01 µM, first compound 0.3 µM
# [5] = second compound 0.01 µM, first compound 0.949 µM
# [6] = second compound 0.01 µM, first compound 3 µM
# [7] = second compound 0.0316 µM, first compound 0.00949 µM
# [8] = second compound 0.0316 µM, first compound 0.03 µM
# [9] = second compound 0.0316 µM, first compound 0.0949 µM
# [10] = second compound 0.0316 µM, first compound 0.3 µM
# [11] = second compound 0.0316 µM, first compound 0.949 µM
# [12] = second compound 0.0316 µM, first compound 3 µM
# [13] = second compound 0.1 µM, first compound 0.00949 µM
# [14] = second compound 0.1 µM, first compound 0.03 µM
# [15] = second compound 0.1 µM, first compound 0.0949 µM
# [16] = second compound 0.1 µM, first compound 0.3 µM
# [17] = second compound 0.1 µM, first compound 0.949 µM
# [18] = second compound 0.1 µM, first compound 3 µM
# [19] = second compound 0.316 µM, first compound 0.00949 µM
# [20] = second compound 0.316 µM, first compound 0.03 µM
# [21] = second compound 0.316 µM, first compound 0.0949 µM
# [22] = second compound 0.316 µM, first compound 0.3 µM
# [23] = second compound 0.316 µM, first compound 0.949 µM
# [24] = second compound 0.316 µM, first compound 3 µM
# [25] = second compound 1 µM, first compound 0.00949 µM
# [26] = second compound 1 µM, first compound 0.03 µM
# [27] = second compound 1 µM, first compound 0.0949 µM
# [28] = second compound 1 µM, first compound 0.3 µM
# [29] = second compound 1 µM, first compound 0.949 µM
# [30] = second compound 1 µM, first compound 3 µM
# 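Note: spheroids exposed to agents for 7 days.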
# 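Throughout, for viability, T/C: 100% = DMSO vehicle control wells.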
smiles,measurement,setting,value
O=C(c1ccc(F)c(F)c1Nc1ccc(I)cc1F)N1CC(O)([C@@H]2CCCCN2)C1 + Cc1c(S(C)(=O)=O)c(-c2cc(F)cc(N3CCN(c4ccc(NS(=O)(=O)c5ccc(NC(CCN6CCC(C(=O)OCCCP(=O)(O)O)CC6)CSc6ccccc6)c(S(=O)(=O)C(F)(F)F)c5)cc4)CC3)c2)c(-c2ccc(Cl)cc2)n1C(C)C,IC50,second compound 0.1 µM,93.4 nM
same,IC50,second compound 0.316 µM,73.3 nM
same,IC50,second compound 1 µM,65.9 nM
same,IC50,second compound 3.16 µM,57.8 nM
same,IC50,second compound 10 µM,52 nM
same,"viability, T/C","second compound 0.1 µM, first compound 0.00316 µM",95.5%
same,"viability, T/C","second compound 0.1 µM, first compound 0.01 µM",92.4%
same,"viability, T/C","second compound 0.1 µM, first compound 0.0316 µM",107%
same,"viability, T/C","second compound 0.1 µM, first compound 0.1 µM",47%
same,"viability, T/C","second compound 0.1 µM, first compound 0.316 µM",9.22%
same,"viability, T/C","second compound 0.1 µM, first compound 1 µM",4.73%
same,"viability, T/C","second compound 0.316 µM, first compound 0.00316 µM",101%
same,"viability, T/C","second compound 0.316 µM, first compound 0.01 µM",97.8%
same,"viability, T/C","second compound 0.316 µM, first compound 0.0316 µM",88.8%
same,"viability, T/C","second compound 0.316 µM, first compound 0.1 µM",35.7%
same,"viability, T/C","second compound 0.316 µM, first compound 0.316 µM",5.96%
same,"viability, T/C","second compound 0.316 µM, first compound 1 µM",2.79%
same,"viability, T/C","second compound 1 µM, first compound 0.00316 µM",102%
same,"viability, T/C","second compound 1 µM, first compound 0.01 µM",99.2%
same,"viability, T/C","second compound 1 µM, first compound 0.0316 µM",103%
same,"viability, T/C","second compound 1 µM, first compound 0.1 µM",20.7%
same,"viability, T/C","second compound 1 µM, first compound 0.316 µM",2.79%
same,"viability, T/C","second compound 1 µM, first compound 1 µM",1.09%
same,"viability, T/C","second compound 3.16 µM, first compound 0.00316 µM",93.5%
same,"viability, T/C","second compound 3.16 µM, first compound 0.01 µM",93.1%
same,"viability, T/C","second compound 3.16 µM, first compound 0.0316 µM",94.7%
same,"viability, T/C","second compound 3.16 µM, first compound 0.1 µM",10.2%
same,"viability, T/C","second compound 3.16 µM, first compound 0.316 µM",1.13%
same,"viability, T/C","second compound 3.16 µM, first compound 1 µM",0.48%
same,"viability, T/C","second compound 10 µM, first compound 0.00316 µM",88.1%
same,"viability, T/C","second compound 10 µM, first compound 0.01 µM",93.5%
same,"viability, T/C","second compound 10 µM, first compound 0.0316 µM",82%
same,"viability, T/C","second compound 10 µM, first compound 0.1 µM",7.98%
same,"viability, T/C","second compound 10 µM, first compound 0.316 µM",4.2%
same,"viability, T/C","second compound 10 µM, first compound 1 µM",0.52%
CCN1C(C(=O)NC23CCC(C(=O)O)(CC2)CC3)C(c2cccc(Cl)c2F)C2(C(=O)Nc3cc(Cl)ccc32)C12CCCCC2 (stereo not given) + CNC(C)C(=O)NC1CN(S(=O)(=O)c2cccc(S(=O)(=O)N3CCC4CCC(C(=O)NC(c5ccccc5)c5ccccc5)N4C(=O)C(NC(=O)C(C)NC)C3)c2)CCC2CCC(C(=O)NC(c3ccccc3)c3ccccc3)N2C1=O,IC50,second compound 0.01 µM,> 3000 nM
same,IC50,second compound 0.0316 µM,2690 nM
same,IC50,second compound 0.1 µM,2820 nM
same,IC50,second compound 0.316 µM,2690 nM
same,IC50,second compound 1 µM,2390 nM
same,"viability, T/C",[1],116%
same,"viability, T/C",[2],147%
same,"viability, T/C",[3],155%
same,"viability, T/C",[4],115%
same,"viability, T/C",[5],76.7%
same,"viability, T/C",[6],53.6%
same,"viability, T/C",[7],112%
same,"viability, T/C",[8],141%
same,"viability, T/C",[9],152%
same,"viability, T/C",[10],125%
same,"viability, T/C",[11],84.5%
same,"viability, T/C",[12],46.3%
same,"viability, T/C",[13],131%
same,"viability, T/C",[14],143%
same,"viability, T/C",[15],147%
same,"viability, T/C",[16],122%
same,"viability, T/C",[17],76.5%
same,"viability, T/C",[18],48.2%
same,"viability, T/C",[19],129%
same,"viability, T/C",[20],149%
same,"viability, T/C",[21],149%
same,"viability, T/C",[22],118%
same,"viability, T/C",[23],75%
same,"viability, T/C",[24],46.8%
same,"viability, T/C",[25],134%
same,"viability, T/C",[26],132%
same,"viability, T/C",[27],159%
same,"viability, T/C",[28],118%
same,"viability, T/C",[29],74.9%
same,"viability, T/C",[30],43.5%
Cc1nc(N2CCC3(CC2)COC(C)C3N)c(CO)nc1Sc1ccnc(N)c1Cl (stereo not given) + CNC(C)C(=O)NC1CN(S(=O)(=O)c2cccc(S(=O)(=O)N3CCC4CCC(C(=O)NC(c5ccccc5)c5ccccc5)N4C(=O)C(NC(=O)C(C)NC)C3)c2)CCC2CCC(C(=O)NC(c3ccccc3)c3ccccc3)N2C1=O,IC50,second compound 0.01 µM,> 3000 nM
same,IC50,second compound 0.0316 µM,> 3000 nM
same,IC50,second compound 0.1 µM,> 3000 nM
same,IC50,second compound 0.316 µM,> 3000 nM
same,IC50,second compound 1 µM,> 3000 nM
same,"viability, T/C",[1],106%
same,"viability, T/C",[2],102%
same,"viability, T/C",[3],112%
same,"viability, T/C",[4],93%
same,"viability, T/C",[5],97.8%
same,"viability, T/C",[6],106%
same,"viability, T/C",[7],98.8%
same,"viability, T/C",[8],111%
same,"viability, T/C",[9],107%
same,"viability, T/C",[10],91.6%
same,"viability, T/C",[11],104%
same,"viability, T/C",[12],104%
same,"viability, T/C",[13],107%
same,"viability, T/C",[14],101%
same,"viability, T/C",[15],103%
same,"viability, T/C",[16],97.7%
same,"viability, T/C",[17],102%
same,"viability, T/C",[18],119%
same,"viability, T/C",[19],96%
same,"viability, T/C",[20],104%
same,"viability, T/C",[21],106%
same,"viability, T/C",[22],103%
same,"viability, T/C",[23],101%
same,"viability, T/C",[24],100%
same,"viability, T/C",[25],112%
same,"viability, T/C",[26],110%
same,"viability, T/C",[27],99.6%
same,"viability, T/C",[28],102%
same,"viability, T/C",[29],105%
same,"viability, T/C",[30],101%
